Reference: US6455583B1, “Method for treating meibomian gland disease” (The University of Miami, priority 1998, dated 2002)
“And” between values parts separate entries of the source, which are not always exact repeats. Equal entries are not always repeated.

How the values were obtained:
[1] = tested on: IL-1RA; experiment: IL-1RA release by human corneal epithelial cell cultures; assay type: cell-based; conditions: 24 h, FIG. 7
Experimental: Media=negative control; LPS=cultures treated with lipopolysaccharide for 24 h; Doxy=cultures treated with doxycycline (5 μg/ml) for 24 h; CMT 3=cultures treated with chemically modified tetracycline CMT 3 (1 μg/ml) for 24 hr; Doxy+LPS=cultures treated with LPS and doxycycline (5 μg/ml) for 24 h; CMT 3+LPS=cultures treated with LPS and chemically modified tetracycline CMT 3 (1 μg/ml) for 24 hr.
IL-1RA has an anti-inflammatory effect by competing with the pro-inflammatory forms of IL-1 (IL-1α and IL-1β) for the type 1 receptor. […] Furthermore, the concentration of IL-1RA in corneal epithelial cultures stimulated with LPS and treated with either doxycycline or CMT-3 was greater than cultures exposed to LPS alone (FIG. 7). These findings indicate tetracyclines are anti-inflammatory due to their ability to stimulate IL-1RA release by the human corneal epithelium.

[2] = tested on: patients with meibomian gland disease and delayed tear clearance; experiment: Topical 0.025% doxycycline solution in patients with meibomian gland disease and delayed tear clearance (Example 6); assay type: in vivo, human
Text: Tetracyclines and chemically modified tetracyclines for topical administration can be added to buffered and electrolyte balanced aqueous solutions, buffered and electrolyte balanced aqueous solutions with a lubricating polymer, mineral oil or petrolatum-based ointment, other oils, liposomes, cylcodextrins, sustained release polymers or gels in a range from 0.001 to 3% (weight per volume or weight per weight). These preparations can be administered to the preocular tear film or onto the eyelid skin or lid margin 1 to 6 times per day for a period up to the lifetime of the patient. For example, an eye drop solution comprising doxycycline as an active ingredient was prepared by dissolving pharmaceutical grade doxycycline hydrochloride powder in an electrolyte-balanced salt solution (BSS™, Alcon, Ft. Worth, Tex.) to a final concentration of 0.025%.
The solution was prepared as described herein.

[3] = tested on: pro-MMP9; experiment: pro-MMP9 activity in supernatant of human corneal epithelial cultures (gelatin zymogram); assay type: cell-based; conditions: doxycycline 5·g/ml for 24 hours, compared to untreated cultures; FIG. 8
Experimental: FIG. 8 is a gelatin zymogram of human corneal epithelial cell supernatant: doxycycline treatment and MMP-3 activation. Lane Legend: (1) 92 kDa purified pro-MMP-9 standard (0.1 ng); (2) Corneal epithelial supernatant+50 μg/mL doxycycline; (3)Supernatant+50 μg/mL doxycycline+1.5 ng/μL MMP-3; (4) Supernatant+100 μg/mL doxycycline+1.5 ng/μL MMP-3; (5) Supernatant from cell culture pre-treated with doxycycline; (6) Supernatant from cell culture pre-treated with doxycycline+1.5 ng/μL MMP-3. Exposure of human corneal epithelial cultures to doxycycline (5·g/ml) for 24 hours decreased the level of pro-MMP9 activity in the supernatant by 70% compared to untreated cultures (FIG. 8). MMP-9 is the metalloproteinase responsible for initiating sterile corneal ulceration and it is also capable of cleaving precursor IL-1β into its mature form.

[4] = tested on: patients with ocular rosacea; experiment: Topical oxytetracycline ointment in patients with meibomian gland disease associated with rosacea and delayed tear clearance (Example 5); assay type: in vivo, human; parameters: key to Clinical Response (per patient): Excellent response, complete or almost complete relief of symptoms.; Good response, symptoms moderately, but not completed relieved
Experimental: Eleven ( 11) patients with ocular irritation symptoms due to meibomian gland disease associated with rosacea and delayed tear clearance were treated with a commercially available oxytetracycline ointment (Terak, Akorn Pharmaceuticals) as a topical administration to the ocular surface or the eyelids. Seventy-three percent (73%) of these patients had complete resolution of irritation symptoms.

## NC(=O)C1=C(O)C[C@@H]2C[C@@H]3Cc4cccc(O)c4C(=O)C3=C(O)[C@]2(O)C1=O [CMT-3]
[1]; LPS + doxycycline 5 μg/ml or CMT 3 1 μg/ml
  concentration of IL-1RA in LPS-stimulated cultures compared to LPS alone: greater
[1]; doxycycline 5 μg/ml or CMT 3 1 μg/ml
  release of IL-1RA into the media compared to untreated cultures: significantly increased

## C[C@H]1c2cccc(O)c2C(=O)C2=C(O)[C@]3(O)C(=O)C(C(N)=O)=C(O)[C@@H](N(C)C)[C@@H]3[C@@H](O)[C@@H]21 [doxycycline]
[2]; 0.025% topical doxycycline solution, one line per patient 1-11, diagnosis MGD, DTC
  RESPONSE (per patient): no effect
[2]; topical solution (doxycycline eye drops), 11 patients
  patients with complete resolution of symptoms: more than 90%
[3]
  decrease of the level of pro-MMP9 activity in the supernatant: 70%

## CN(C)[C@@H]1C(O)=C(C(N)=O)C(=O)[C@@]2(O)C(O)=C3C(=O)c4c(O)cccc4[C@@](C)(O)[C@H]3[C@H](O)[C@@H]12 [oxytetracycline]
[4]; topical ointment to ocular surface or eyelids, 11 patients
  patients with complete resolution of (irritation) symptoms: 73%
[4]; topical ointment, 11 patients, one of which ceased treatment
  patients who experienced burning from the medication: Three
[4]; topical oxytetracycline ointment, one line per patient 1-11
  Clinical Response (per patient): G (3×) and E (8×)
[4]; topical oxytetracycline ointment, per patient
  Comments (tolerability, per patient): mild burning
